Like-named read-outs stand apart in the source and are kept apart here.
What was measured:
[1] = 25 °C, Rosen; cited from earlier work
[2] = Effectiveness in reducing surface tension (Example 93); type: physicochemical; settings: 60 °C, estimated by extrapolation
Excerpt: As mentioned before, surface tension reduction depends on the replacement of water molecules at the interface by surfactant molecules, therefore the effectiveness of a surfactant in reducing interfacial surface tension should reflect the saturated concentration of surfactant at the interface relative to that in bulk liquid phase. During this process the surface tension of water steadily decreases as bulk phase surfactant concentration increases. This will continue until the concentration reaches the critical micelle concentration (CMC), above which the surface tension remains nearly unchanged and the interface is saturated with surfactant. The surface tension at the CMC is therefore very close to the minimum interfacial tension or maximum surface pressure that the system can achieve. The surface pressure at this point, IIcmc, is a suitable measure of the effectiveness of a surfactant in reducing surface tension and is given as:
.PI.cmc 20+2.3nRT(Γmax) log [CMC/C20 ]
n=1 which represents the number of ions whose surface concentration changes with the change in liquid phase suffactant concentration.
CMC/C20 =is the ratio of the critical micelle concentration to the bulk phase surfactant concentration necessary to reduce the surface tension of water by 20 dyn/cm.

[3] = Area per molecule at the water/air interface (Example 95); type: physicochemical; settings: 60 °C, estimated by extrapolation
Excerpt: The area per molecule of a surfactant at the water/air interface provides information on the degree of packing and the orientation of the adsorbed surfactant molecule. While not wishing to be bound by theory, it is believed that surfactants that have small area per molecule values tend to pack more closely at the interface than those with large area per molecule values. From the surface excess concentration at surface saturation (Γmax), the area per molecule (am) of C8 /C10 oxypropyl D-gluconamide was determined and is given by:
am =1×10^16 /Nav Γmax

[4] = Rosen, cited from earlier work
[5] = Rosen, cited from earlier work; remark: listed apart in the source
[6] = Rosen, cited from earlier work; remark: listed apart in the source
[7] = Effectiveness of adsorption, surface excess concentration at surface saturation (Example 94); type: physicochemical; settings: 60 °C, estimated by extrapolation
Excerpt: The surface excess concentration at surface saturation (Γmax) is defined as a measure of the effectiveness of surfactant adsorption at the water/air interface and represents the maximum value to which adsorption can be obtained. Effectiveness of adsorption is related to the interfacial area occupied by the surfactant molecule. The smaller the effective cross-sectional area of a surfactant at the interface, the greater its effectiveness of adsorption. The effectiveness of adsorption is an important factor in determining surfactant properties such as detergency, foaming, wetting or emulsification. While not wishing to be bound by theory, it is believed that surfactants that absorb effectively at the interface tend have tightly packed coherent interfacial films and often provide better surfactant benefits than those with loosely packed noncoherent films. The effectiveness of adsorption of C8 /C10 oxypropyl D-gluconamide was determined using the Gibbs equation given as: […]
ergs/cm^2 (which is equivalent to the slope of a plot of γ

[8] = Viscosity of prototype shampoo compositions with sodium lauryl sulfate, Brookfield Digital Viscometer (Example 88); type: physicochemical; settings: vs no thickener
Procedure: (§1) The prototype shampoo composition is as follows:
(§2) The above formulations were prepared by admixing the above ingredients in listed order and heating the mixture to about 80° C. with rapid stirring. The mixture was then cooled to about 40° C., placed in a clear jar and stored at room temperature for 6 months.
It is well known that the viscosity of a liquid composition comprising of anionic surfactant can be modified by the addition of inorganic salts, such as sodium chloride. However, in the absence of an organic modifier, high levels of salt may be necessary to achieve the required viscosity which may lead to problems of storage at cold temperature or even salting out certain ingredients. In practice, however, the viscosity of a liquid composition is modified by the simultaneous addition of thickener and small amounts of inorganic salt (viscosity cobuilder). The combined effect is greater than either one alone. The viscosity of the above prototype shampoo composition comprising various amounts of heteroatom containing alkyl aldonamide compound is as follows: […]

[9] = Ross-Miles foam height assay of aldonamides (Examples 81-84); type: physicochemical; settings: 0.1% aldonamide, 40° C. (if not soluble, about 5°-10° C. above Krafft point), 0 ppm hardness; for Foam Height Final: after 10 minutes
Procedure: In the Ross-Miles method, 200 mL of a suffactant solution contained in a pipette of specified dimensions with a 2.9 -mm-i.d. orifice is allowed to fall 90 cm onto 50 mL of the same solution contained in a cylindrical vessel maintained at a given temperature by means of a water jacket. The height of the foam produced in the cylindrical vessel is read immediately after all the solution has run out of the pipette and then again after a given amount of time.
Using this method, the foam production (initial foam height in mm) and foam stability (final foam height after 10 minutes in mm) were measured at 0.1% aldonamtde concentration, 40° C. and 0 ppm (parts per million) hardness.

[10] = Krafft point determination; type: physicochemical; settings: 0.1% in water
Procedure: The temperature at and above which surfactants begin to form micelles instead of precipitates is referred to as the Krafft point (Tk) and at this temperature the solubility of a surfactant becomes equal to its CMC (numerical value at which micelles are formed).
The Krafft point was measured by preparing 650 ml of a 0.1% or 1.0% dispersion of aldonamide in water by weight. If the surfactant was soluble at room temperature, the solution was slowly cooled to 0° C. […] (less than zero). If it precipitated out of solution, the temperature at which precipitation occurs was taken as the Krafft point.
If the surfactant was insoluble at room temperature, the dispersion was slowly heated until the solution became homogeneous. It was then slowly cooled until precipitation occurred. The temperature at which the surfactant precipitates out of solution upon cooling was taken as the Krafft point.

[11] = Clarity of prototype shampoo compositions with sodium lauryl sulfate (Example 87); type: physicochemical; settings: room temperature, 6 months
Procedure: as §1, §2

[12] = Foam stability and enhancement of prototype shampoo (sodium/ammonium lauryl sulfate), Ross-Miles Foam Height assay (Example 86); type: physicochemical; settings: 45° C., 4.0% additive in prototype shampoo
Procedure: The results were compared to identical compositions comprising petrochemitcally derived foam stabilizing agents, in particular, alkanolamides and alcohol ethoxylates. The prototype shampoo composition is as follows:
The compositions were prepared by admixing the ingredients in listed order with rapid stirring at 45°-50° C. Foam stability and enhancement were measured at 0.1% based on sodium and ammonium lauryl sulfate (0.16% total solids) at 45° C. and 0 or 120 parts per million (ppm) hardness calcium:magnesium ion 2:1.

[13] = Viscosity of prototype shampoo compositions of Example 86, Brookfield Digital Viscometer; type: physicochemical; settings: 4.0% thickener, Example 86 shampoo, 22° C.
Excerpt: The results are as follows:

[14] = 3.0% thickener in […] sodium lauryl sulfate shampoo
[15] = 5.0% thickener in […] sodium lauryl sulfate shampoo

Compound: CCCCCCCCCCCCOCCOCCOCCO [Dodecyltri(oxyethylene) Ether]
- pC20 [1]: 5.34
- .PI.cmc (surface pressure) [2]: 41.4 dyn/cm
- am (area per molecule) [3]: 45.4 Å^2
- Γmax (surface excess concentration at surface saturation) ([4]; 25 °C): 3.98 × 10^-10 mole/cm^2
- Γmax (surface excess concentration at surface saturation) ([4]; 40 °C): 3.90 × 10^-10 mole/cm^2
- .PI.cmc (surface pressure) ([5]; 25 °C): 44.1 dyn/cm
- CMC/C20 ([5]; 25 °C): 11.4
- .PI.cmc (surface pressure) ([5]; 40 °C): 43.1 dyn/cm
- am (area per molecule) ([6]; 25 °C): 41.7 Å^2
- am (area per molecule) ([6]; 40 °C): 42.5 Å^2
- Γmax (surface excess concentration at surface saturation) [7]: 3.83 × 10^-10 mole/cm^2

Compound: CCCCCCCCCCCCOCCCNC(=O)[C@H](O)[C@@H](O)[C@H](O[C@@H]1O[C@H](CO)[C@H](O)[C@H](O)[C@H]1O)[C@H](O)CO [C12 Oxypropyl D-Lactobionamide, Dodecyloxypropyl D-Lactobionamide]
- Increase (viscosity) ([8]; 3.0% thickener): 23 ×
- Increase (viscosity) ([8]; 5.0% thickener): 97 ×
- Foam Height Initial [9]: 165 mm
- Foam Height Final [9]: 154 mm
- Krafft Point (0.1%) [10]: < 0 °C

Compound: CCCCCCCCCCCCOCCCNC(=O)[C@H](O)[C@@H](O)[C@H](O)[C@H](O)CO [C12 Oxypropyl D-Gluconamide]
- Increase (viscosity) ([8]; 3.0% thickener): 120 ×
- Increase (viscosity) ([8]; 5.0% thickener): 1373 ×
- Appearance (Time) [11, 14]: Clear
- Appearance (Time) [11, 15]: Precipitate (5 months)
- Foam Height Initial [9]: 200 mm
- Foam Height Final [9]: 110 mm

Compound: Coco D-Gluconamide
- Appearance (Time) [11, 14]: Precipitate (1 day)
- Appearance (Time) [11, 15]: Precipitate (2 hours)

Compound: Octyl/Decyloxypropyl D-Lactobionamide [C8 /C10 Oxypropyl D-Lactobionamide]
- Appearance (Time) [11, 14]: Clear
- Appearance (Time) [11, 15]: Clear
- Foam Height Initial [9]: 168 mm
- Foam Height Final [9]: 158 mm
- Krafft Point (0.1%) [10]: < 0 °C

Compound: CCCCCCCCCCCCOCCOCCOCCOCCOCCO [Dodecylpenta(oxyethylene) Ether]
- pC20 [1]: 5.37
- .PI.cmc (surface pressure) [2]: 40.7 dyn/cm
- am (area per molecule) [3]: 52.3 Å^2
- Γmax (surface excess concentration at surface saturation) ([4]; 25 °C): 3.31 × 10^-10 mole/cm^2
- Γmax (surface excess concentration at surface saturation) ([4]; 40 °C): 3.28 × 10^-10 mole/cm^2
- .PI.cmc (surface pressure) ([5]; 25 °C): 41.5 dyn/cm
- CMC/C20 ([5]; 25 °C): 15.0
- .PI.cmc (surface pressure) ([5]; 40 °C): 41.2 dyn/cm
- am (area per molecule) ([6]; 25 °C): 50.1 Å^2
- am (area per molecule) ([6]; 40 °C): 50.6 Å^2
- Γmax (surface excess concentration at surface saturation) [7]: 3.16 × 10^-10 mole/cm^2

Compound: CCCCCCCCCCCCOCCOCCOCCOCCO [Dodecyltetra(oxyethylene) Ether]
- pC20 [1]: 5.34
- .PI.cmc (surface pressure) [2]: 40.7 dyn/cm
- am (area per molecule) [3]: 53.3 Å^2
- Γmax (surface excess concentration at surface saturation) ([4]; 25 °C): 3.63 × 10^-10 mole/cm^2
- Γmax (surface excess concentration at surface saturation) ([4]; 40 °C): 3.41 × 10^-10 mole/cm^2
- .PI.cmc (surface pressure) ([5]; 25 °C): 43.4 dyn/cm
- CMC/C20 ([5]; 25 °C): 13.7
- .PI.cmc (surface pressure) ([5]; 40 °C): 42.0 dyn/cm
- CMC/C20 ([5]; 40 °C): 11.8
- am (area per molecule) ([6]; 25 °C): 45.7 Å^2
- am (area per molecule) ([6]; 40 °C): 48.7 Å^2
- Γmax (surface excess concentration at surface saturation) [7]: 3.01 × 10^-10 mole/cm^2

Compound: CCCCCCCCCCCCOC(=O)CNC(=O)[C@H](O)[C@@H](O)[C@H](O[C@@H]1O[C@H](CO)[C@H](O)[C@H](O)[C@H]1O)[C@H](O)CO [D-Lactobionyl C12 Glycinate, N-D-Lactobionyl Dodecyl Glycinate]
- Foam Height Initial [9]: 161 mm
- Foam Height Final [9]: 153 mm
- Krafft Point (0.1%) [10]: < 0 °C

Compound: CCCCCCCCCCCNC(=O)[C@H](O)[C@@H](O)[C@H](O[C@@H]1O[C@H](CO)[C@H](O)[C@H](O)[C@H]1O)[C@H](O)CO [C11 D-Lactobionamide]
- Foam Height Initial [9]: 0 mm
- Foam Height Final [9]: 0 mm
- Krafft Point (0.1%) [10]: 61 °C

Compound: CCCCCCCCCCCC(=O)N(CCO)CCO [Lauramide DEA, lauramide diethanolamine]
- Final FH after 60 Min. ([12]; 0 ppm hardness): 151 mm
- Initial FH ([12]; 0 ppm hardness): 190 mm
- Final FH after 60 Min. ([12]; 120 ppm hardness): 126 mm
- Initial FH ([12]; 120 ppm hardness): 159 mm
- Viscosity [13]: 2376 Centipoise

Compound: cocoamide monoethanolamine [Cocoamide MEA]
- Final FH after 60 Min. ([12]; 0 ppm hardness): 70 mm
- Initial FH ([12]; 0 ppm hardness): 178 mm
- Final FH after 60 Min. ([12]; 120 ppm hardness): 53 mm
- Initial FH ([12]; 120 ppm hardness): 148 mm
- Viscosity [13]: 1720 Centipoise

Compound: CCCCCCCCCCCCCCNC(=O)[C@H](O)[C@@H](O)[C@H](O[C@@H]1O[C@H](CO)[C@H](O)[C@H](O)[C@H]1O)[C@H](O)CO [C14 D-Lactobionamide]
- Foam Height Initial [9]: 141 mm
- Foam Height Final [9]: 59 mm
- Krafft Point (0.1%) [10]: 18 °C

Compound: CCCCCCCCCCNC(=O)[C@H](O)[C@@H](O)[C@H](O)[C@H](O)CO [C10 D-Gluconamide]
- Appearance (Time) [11, 14]: Precipitate (1 week)
- Appearance (Time) [11, 15]: Precipitate (5 days)
- Foam Height Initial [9]: 199 mm
- Foam Height Final [9]: 6 mm

Compound: CCCCCCCCCNC(=O)[C@H](O)[C@@H](O)[C@H](O)[C@H](O)CO [C9 D-Gluconamide]
- Appearance (Time) ([11]; 4.0% thickener in […] sodium lauryl sulfate shampoo): Precipitate (2 weeks)
- Appearance (Time) [11, 15]: Precipitate (2 weeks)
- Foam Height Initial [9]: 0 mm
- Foam Height Final [9]: 0 mm

Compound: CCCCCCCCCNC(=O)[C@H](O)[C@@H](O)[C@H](O[C@@H]1O[C@H](CO)[C@H](O)[C@H](O)[C@H]1O)[C@H](O)CO [C9 D-Lactobionamide, Nonyl D-Lactobionamide]
- Foam Height Initial [9]: 0 mm
- Foam Height Final [9]: 0 mm
- Krafft Point (0.1%) [10]: 42 °C

Compound: Cocoaminopropyl D-Gluconamide
- Appearance (Time) [11, 14]: Clear
- Appearance (Time) [11, 15]: Clear
- Foam Height Initial [9]: 186 mm
- Foam Height Final [9]: 182 mm

Compound: CCCCCCCCCCCCCCCCNC(=O)[C@H](O)[C@@H](O)[C@H](O[C@@H]1O[C@H](CO)[C@H](O)[C@H](O)[C@H]1O)[C@H](O)CO [C16 D-Lactobionamide]
- Foam Height Initial [9]: 95 mm
- Foam Height Final [9]: 95 mm
- Krafft Point (0.1%) [10]: 64 °C

From patent US5641480A, “Hair care compositions comprising heteroatom containing alkyl aldonamide compounds” (Lever Brothers Company, Division of Conopco, Inc., priority 1994, dated 1997)
